The data set in a line: Thermal aqueous solubility of the compound at pH 6.4 by high throughput assay. To be noted: buffer. The class given is physicochemical.

By solubility is commonly meant the dissolved amount per volume that the medium holds. Read a low solubility as a poorly soluble substance.

Structures are written as SMILES.

`COc1c(/C=C/c2ccc(NS(C)(=O)=O)cc2)cc(-c2ccc[nH]c2=O)cc1C(C)(C)C` registered a solubility of less than 1 µg/mL.

(Values after ChEMBL document CHEMBL2429757, “Discovery of a novel series of potent non-nucleoside inhibitors of hepatitis C virus NS5B” (J Med Chem, 2013).)
